Experimental data from patent publication US20260021186A1, “Fatty Acid-D-Amino Acid Peptides Conjugates as Anaplerotic Compounds for Use in Treating Propionic Acidemia, Methylmalonic Acidurias, and Energy Metabolic Disorders” (University of Pittsburgh - Of the Commonwealth System of …, priority 2022, published 2026).

Experiments:
Format in all cases: cell-based, human
[1] = tested on: propionic acidemia (PA) fibroblast cell line Fb900; assay: Mitochondrial ROS production using MitoSOX Red; details: FIG. 15C; 180 and 640 μM, 72 h
Excerpt: (§1) FIGS. 15A-15D are graphs showing the measurement of mitochondrial reactive oxygen species (ROS) production using MitoSOX Red as Superoxide indicator probe. FIG. 15A is a graph showing control fibroblast cell line FB826 treated with PMA010, PMA011, PMA019, and PMA020. FIG. 15B is a graph showing propionic acidemia (PA) patients' fibroblast cell linc Fb859 treated with PMA010, PMA011, PMA019, and PMA020. FIG. 15C is a graph showing propionic acidemia (PA) patients' fibroblast cells line Fb900 treated with PMA010, PMA011, PMA019, and PMA020. FIG. 15D is a graph comparing ROS production levels in response to treatment with PMA011 in Control fibroblast cell line (FB826), PA fibroblast cell line (Fb900), and glutaric acidemia II (GA II) patient fibroblast cell lines (Fb930, Fb961). Data are the average of readings from 3 replicate wells.
(§2) Measurement of mitochondrial ROS production using MitoSOX Red as superoxide indicator probe: control (Fb826), PA patient (Fb859, Fb900) and GA II patient (Fb930, Fb961) fibroblasts were grown in regular DMEM media containing glucose/pyruvate/L-glutamine until 85-90% confluency. The cells were harvested and seeded at a concentration of 25,000 cells/80 μl (n=3) in cell culture treated black wall 96 well microplate with clear bottom in regular DMEM media containing glucose/pyruvate/L-glutamine and incubated overnight at 37° C. in a 5% CO2 incubator. Following day, the culture media was replaced in designated wells with the following for 72 h: 150 μl regular DMEM (Glucose+10% FBS+sodium pyruvate+L-glutamine+0.5 mM carnitine). 150 μl of Regular DMEM containing experimental compounds (180 and 640 μM) PMA010 or PMA011 or PMA 019 and (640 μM) PMA020 in control and propionic acidemia patient fibroblasts. 150 μl of regular DMEM containing experimental compounds (600 and 1200 μM) PMA011 in Fb930 and (1200 μM) PMA011 in Fb961 GA II patient fibroblast. After 72 h incubation the wells were washed twice with 150 μL of Seahorse XFDMEM base media and in respective designated wells the following Assay buffer (150 μL of seahorse XFDMEM base media containing glucose, sodium pyruvate and Glutamine) was used along with 5 μM MitoSOX reagent and incubated at 37° C. non-CO2 incubator for 15 minutes protected from light. After 15 minutes incubation the cells were washed twice with 150 μL of seahorse XFDMEM base media and replaced with measurement buffer, which is same as the wash buffer. The fluorescence was monitored with excitation at 520 nm and emission at 580 nm. Finally, cells were lysed, and protein content was determined. Data is normalized to protein concentration and fluorescence is reported as MitoSOX Red (AFU)/mg protein.

[2] = tested on: control fibroblast cell line FB826; assay: Mitochondrial ROS production using MitoSOX Red; details: FIG. 15A; 180 and 640 μM, 72 h
Excerpt: as §1, §2

[3] = tested on: HEK293 PCCA−/− cells; assay: Lysine succinylation of cellular proteins by immunofluorescence confocal microscopy; details: FIGS. 9C, 9D; 30 μM and 90 μM; media without glucose, pyruvate, and glutamine
Procedure: FIGS. 9A-9F are a comparison of lysine succinylation of cellular proteins visualized by immunofluorescence confocal microscopy in human HEK293 control and HEK293 PCCA^−/− cells untreated (FIGS. 9A and 9B) and treated with 30 μM and 90 μM of PMA007 (FIG. 9C) or 30 μM and 90 μM of PMA010 (FIG. 9D). The cells in FIGS. 9B, 9C, and 9D were grown in media without glucose, pyruvate, and glutamine. Scale bar=20 μm. FIG. 9E is a bar graph showing the quantification of the percent change in lysine succinylation (green) signal, from the immunofluorescence confocal micrographs of FIGS. 9B and 9C, in response to the treatment of PMA007. FIG. 9F is a bar graph showing the quantification of the percent change in lysine succinylation (green) signal, from the immunofluorescence confocal micrographs of FIGS. 9B and 9D, in response to the treatment of PMA010. Asterisks indicate statistical significance calculated at the raw data level (n=3); **P<0.01. ****P<0.0001 statistically compared to untreated. Statistical analysis used T-test.
FIGS. 9A-9F are a comparison of lysine succinylation of cellular proteins visualized by immunofluorescence confocal microscopy in human HEK293 control and in untreated and treated HEK293 PCCA^−/− knock out cells. […] The PMA007 treatment data in the bar graph of FIG. 9E are the quantitation of the images of FIG. 9C compared to untreated control in FIG. 9B. […]

SMILES: C[C@@H](NC(=O)CCCCC(=O)O)C(=O)N[C@H](Cc1c[nH]cn1)C(=O)O [PMA010, 6-(((R)-1-(((R)-1-carboxy-2-(1H-imidazol-4-yl)ethyl)amino)-1-oxopropan-2-yl)amino)-6-oxohexanoic acid]
- ROS detected (MitoSOX Red) [1]: significant decrease in ROS
- ROS detected (MitoSOX Red) [2]: significant decrease in ROS
- lysine succinylation (green) signal [3]: green color was restored
